Reference: paper PMC6601628 (Science (New York, N.Y.), 2019)

Tests used:
eIF2B(βγδε)2 octamer [1] = target: eIF2B(βγδε)2 octamer (Homo sapiens, UniProt P49770+Q9UI10, P49770:N132D); experiment: GEF activity, loading of fluorescent GDP onto eIF2; assay type: biochemical; settings: activator; stabilises assembly of two tetramers; substrate eIF2
eIF2B(βγδε)2 octamer [2] = target: eIF2B(βγδε)2 octamer (Homo sapiens, UniProt P49770+Q9UI10); experiment: GEF activity, loading of fluorescent GDP onto eIF2; assay type: biochemical; settings: activator; stabilises assembly of two tetramers; substrate eIF2
Sequence of eIF2B(βγδε)2 octamer (Homo sapiens, UniProt P49770+Q9UI10) (P49770 whole entry): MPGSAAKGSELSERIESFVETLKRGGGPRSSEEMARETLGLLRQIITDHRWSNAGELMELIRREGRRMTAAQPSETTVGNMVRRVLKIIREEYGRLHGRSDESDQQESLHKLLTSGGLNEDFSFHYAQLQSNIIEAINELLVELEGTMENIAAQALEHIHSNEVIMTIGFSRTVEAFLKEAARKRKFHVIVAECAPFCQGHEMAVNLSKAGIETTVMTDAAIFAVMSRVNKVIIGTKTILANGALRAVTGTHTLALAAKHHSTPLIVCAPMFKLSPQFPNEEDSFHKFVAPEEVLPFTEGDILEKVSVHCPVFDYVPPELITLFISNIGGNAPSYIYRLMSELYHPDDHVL
Sequence of eIF2B(βγδε)2 octamer (Homo sapiens, UniProt P49770+Q9UI10) (Q9UI10 whole entry): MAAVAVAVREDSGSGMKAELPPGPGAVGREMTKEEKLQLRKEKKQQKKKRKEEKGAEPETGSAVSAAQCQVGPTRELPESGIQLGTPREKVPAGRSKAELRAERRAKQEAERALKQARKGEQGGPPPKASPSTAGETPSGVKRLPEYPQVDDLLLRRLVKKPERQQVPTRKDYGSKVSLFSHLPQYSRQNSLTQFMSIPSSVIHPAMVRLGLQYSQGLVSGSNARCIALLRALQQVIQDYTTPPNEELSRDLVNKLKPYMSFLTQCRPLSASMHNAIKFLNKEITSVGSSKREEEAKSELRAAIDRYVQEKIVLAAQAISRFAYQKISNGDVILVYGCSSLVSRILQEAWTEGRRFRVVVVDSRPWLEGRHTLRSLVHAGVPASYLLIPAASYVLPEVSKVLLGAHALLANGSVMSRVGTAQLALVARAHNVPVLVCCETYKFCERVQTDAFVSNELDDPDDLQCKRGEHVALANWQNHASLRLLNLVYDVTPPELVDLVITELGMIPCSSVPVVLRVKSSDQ
Sequence of eIF2B(βγδε)2 octamer (Homo sapiens, UniProt P49770+Q9UI10) (Q9NR50 whole entry partner): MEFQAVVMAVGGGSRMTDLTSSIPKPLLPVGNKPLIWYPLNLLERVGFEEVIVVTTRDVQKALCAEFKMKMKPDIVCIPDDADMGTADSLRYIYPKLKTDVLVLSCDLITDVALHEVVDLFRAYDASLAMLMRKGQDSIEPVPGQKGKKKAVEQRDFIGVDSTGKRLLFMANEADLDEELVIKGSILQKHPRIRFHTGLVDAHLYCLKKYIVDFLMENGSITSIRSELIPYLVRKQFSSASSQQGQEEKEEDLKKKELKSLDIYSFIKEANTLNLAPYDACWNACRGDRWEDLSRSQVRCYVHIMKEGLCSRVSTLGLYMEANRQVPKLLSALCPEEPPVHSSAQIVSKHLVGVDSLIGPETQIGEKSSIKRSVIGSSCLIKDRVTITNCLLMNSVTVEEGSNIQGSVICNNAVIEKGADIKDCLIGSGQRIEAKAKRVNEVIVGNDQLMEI
Sequence of eIF2B(βγδε)2 octamer (Homo sapiens, UniProt P49770+Q9UI10) (Q13144 2-721 partner): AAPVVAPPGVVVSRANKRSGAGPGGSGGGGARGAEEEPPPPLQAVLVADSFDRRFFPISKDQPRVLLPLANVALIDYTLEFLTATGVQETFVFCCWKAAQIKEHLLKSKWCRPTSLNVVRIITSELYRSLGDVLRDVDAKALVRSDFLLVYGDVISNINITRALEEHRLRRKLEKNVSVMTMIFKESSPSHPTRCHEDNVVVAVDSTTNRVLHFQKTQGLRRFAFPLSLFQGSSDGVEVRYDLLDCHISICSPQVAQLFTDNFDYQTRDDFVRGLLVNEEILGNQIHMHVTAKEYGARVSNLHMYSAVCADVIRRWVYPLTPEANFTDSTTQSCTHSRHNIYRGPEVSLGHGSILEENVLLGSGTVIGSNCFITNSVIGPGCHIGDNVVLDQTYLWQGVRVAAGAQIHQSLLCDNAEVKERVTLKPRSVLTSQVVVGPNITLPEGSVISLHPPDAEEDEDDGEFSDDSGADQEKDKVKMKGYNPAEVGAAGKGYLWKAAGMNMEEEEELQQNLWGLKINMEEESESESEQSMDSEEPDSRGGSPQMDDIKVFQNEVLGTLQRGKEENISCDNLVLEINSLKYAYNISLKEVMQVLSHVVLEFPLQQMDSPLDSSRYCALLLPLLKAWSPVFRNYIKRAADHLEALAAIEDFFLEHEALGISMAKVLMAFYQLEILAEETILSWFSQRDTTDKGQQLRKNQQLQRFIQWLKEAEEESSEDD

Sequence of eIF2B(βγδε)2 octamer (Homo sapiens, UniProt P49770+Q9UI10, P49770:N132D) (P49770 whole entry N132D): as the sequence (P49770 whole entry) above, with N132D counted along it
Sequence of eIF2B(βγδε)2 octamer (Homo sapiens, UniProt P49770+Q9UI10, P49770:N132D) (Q9UI10 whole entry): as the sequence (Q9UI10 whole entry) above
Sequence of eIF2B(βγδε)2 octamer (Homo sapiens, UniProt P49770+Q9UI10, P49770:N132D) (Q9NR50 whole entry partner): as the sequence (Q9NR50 whole entry partner) above
Sequence of eIF2B(βγδε)2 octamer (Homo sapiens, UniProt P49770+Q9UI10, P49770:N132D) (Q13144 2-721 partner): as the sequence (Q13144 2-721 partner) above

With O=C(COc1ccc(Cl)cc1)N[C@H]1CC[C@H](NC(=O)COc2ccc(Cl)cc2)CC1 [ISRIB] the “GEF activity, loading of fluorescent GDP onto eIF2” value (eIF2B(βγδε)2 octamer [1]) was “eIF2B-βN132D tetramers and ISRIB-stabilized octamers” and the “GEF activity, loading of fluorescent GDP onto eIF2” value (eIF2B(βγδε)2 octamer [2]) was “GEF activity of the ISRIB-stabilized eIF2B octamer”.
